Measurements published in PMC8365602 (Journal of Medicinal Chemistry, 2021).
Where two headings read alike, the source gives them in different places.

Key:
[1] = tested on: zymosan-induced murine peritonitis; assay: Zymosan-induced peritonitis in mice; type: in vivo; conditions: 3 mg/kg p.o., 30 min post zymosan
Experimental: Male CD-1 mice (33–39 g, 6–8 weeks, Charles River Laboratories; Calco, Italy) and female BALB/c mice (20 g, 8 weeks, Charles River Laboratories) were fed with standard rodent chow and water and acclimated for 4 days at a 12 h light and 12 h dark schedule in a constant air-conditioned environment (21 ± 2 °C). Mice were randomly assigned to groups, and experiments were carried out during the light phase.
Zymosan (2 mg/mL in saline, i.p., 0.5 mL, Sigma-Aldrich) was injected at 30 min (i.p.) or 60 min (p.o.) post compound administration. Mice were sacrificed by inhalation of CO2 after another 30 min to determine LTC4 levels, lipid mediator profiles, metabolites, and vascular permeability and after 4 h to analyze LTB4 levels and cell infiltration.[72] Plasma and peritoneal exudates were collected, and cells were counted in exudates after trypan blue staining. Vascular permeability was measured by injection of Evans blue dye (40 mg/kg in saline, 0.3 mL, Sigma-Aldrich) into the tail vain directly before peritonitis induction.[72] The exudate was centrifuged (3000g, 5 min), and the absorbance was measured at 610 nm (DU730 spectrophotometer, Beckman Coulter, Krefeld, Germany). Levels of LTB4 and cysteinyl-LTs (dominated by LTC4) were quantified in the exudate by ELISA (Enzo Life Sciences, Lörrach, Germany) according to the manufacturer’s instructions. Compound 27a, its metabolites, and lipid mediators were extracted and analyzed by UPLC-MS/MS.

[2] = biological target: T1, 5-LOX (Homo sapiens, UniProt P09917); assay: Cell-free 5-LOX activity (isolated human recombinant enzyme); conditions: read-out: 5-LOX enzyme residual activity at 1 µM (Table S1)
T1 sequence (P09917 1-674): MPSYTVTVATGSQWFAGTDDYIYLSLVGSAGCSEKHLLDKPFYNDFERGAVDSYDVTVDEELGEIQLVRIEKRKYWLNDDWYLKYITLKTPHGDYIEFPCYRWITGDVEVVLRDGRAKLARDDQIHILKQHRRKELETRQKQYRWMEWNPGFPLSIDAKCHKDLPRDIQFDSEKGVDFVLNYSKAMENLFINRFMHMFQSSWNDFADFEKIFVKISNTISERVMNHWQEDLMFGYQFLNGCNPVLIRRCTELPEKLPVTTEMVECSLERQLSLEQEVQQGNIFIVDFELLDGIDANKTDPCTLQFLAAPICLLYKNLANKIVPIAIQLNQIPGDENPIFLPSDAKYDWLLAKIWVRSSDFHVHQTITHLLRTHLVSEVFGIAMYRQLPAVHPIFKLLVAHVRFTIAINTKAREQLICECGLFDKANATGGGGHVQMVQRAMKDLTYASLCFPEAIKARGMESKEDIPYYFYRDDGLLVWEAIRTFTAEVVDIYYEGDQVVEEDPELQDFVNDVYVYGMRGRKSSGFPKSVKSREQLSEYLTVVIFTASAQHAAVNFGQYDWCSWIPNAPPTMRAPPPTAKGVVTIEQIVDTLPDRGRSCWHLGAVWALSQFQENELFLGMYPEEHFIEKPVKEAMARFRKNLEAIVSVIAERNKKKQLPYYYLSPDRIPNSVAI
Experimental: Human recombinant 5-LOX was expressed in E. coli Bl21 (DE3) cells that were transformed with pT3–5LOX (wt 5-LOX), 5-LOX_3W (triple mutation of Trp102Ala/Trp13Ala/Trp75Ala), or 5-LOX_R (single mutant of the Arg101Asp plasmid) and purified on an ATP-agarose column (Econo-Pac, Bio-Rad, Hercules, CA) by affinity chromatography.[6],[75]
Purified 5-LOX (0.5 μg in PBS pH 7.4 containing 1 mM EDTA and 1 mM ATP) was preincubated with the vehicle (DMSO) or test compounds for 10 min and prewarmed at 37 °C.

[3] = biological target: T1, 5-LOX; conditions: supplementary csv; # published in ref Pein et al.4; read-out: IC50 (5-LOX PMNL); cited from earlier work
[4] = biological target: T1, 5-LOX; parameters: made in house; host or cells: E. coli Bl21 (DE3); conditions: supplementary csv; # published in ref Pein et al.4; read-out: IC50 (5-LOX enzyme); cited from earlier work
[5] = biological target: T1, 5-LOX; assay: 5-LOX product formation in activated PMNL; conditions: PMNL, read-out: 5-LOX PMNL residual activity at 3 µM (Table S1);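 further: freshly isolated human PMNL in PBS pH 7.4 plus glucose, preincubated 10 min at 37 °C with compound, 5-LOX products (all-trans LTB4 isomers, 5-HETE) quantified by RP-HPLC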
Experimental: These volunteers regularly donated blood (every 8–12 weeks) and were physically inspected by a clinician.
Erythrocytes were removed by dextran sedimentation and hypotonic lysis. PMNL were obtained from the cell pellet and platelets from the supernatant.
Freshly isolated PMNL (5 × 10^6) suspended in PBS pH 7.4 with 1 mg/mL glucose or freshly withdrawn human whole blood were preincubated with the test compounds for 10 min (or as indicated) at 37 °C. […] The reaction was stopped with an equal volume of methanol.

[6] = tested on: reconstructed human epidermis (RHE); assay: Experimental atopic dermatitis in reconstructed human epidermis (RHE); type: cell-based; conditions: 1 μM, control
Experimental: Compound 27a was evaluated in an inflammatory model of RHE by Synelvia S.A.S. (Labège, France) according to the company’s protocol.[88] In brief, primary human keratinocytes were used to generate RHE on polycarbonate filters as described.[88] RHE was allowed to acclimate for 6 days (5% CO2, 37 °C) prior to incubation with 27a (5, 10, 25 μM), dexamethasone (1 μM), or vehicle (0.05% DMSO), and a proinflammatory cytokine cocktail for 4 days at 5% CO2 and 37 °C. The culture medium including compounds and cytokines was changed on days 6, 8, and 10. Each culture condition was repeated three times. Acute cytotoxicity of 27a was excluded at the concentrations studied within 24 h by measuring the mitochondrial dehydrogenase activity (MTT assay).
Morphological changes (i.e., spongiosis and the formation of keratohyalin granules) were evaluated for sections of paraffin-embedded RHEs after hematoxylin-eosin staining.[89] The permeability of the skin barrier was estimated from the transepidermal water loss at the RHE surface.[90] The surface pH was determined with a pH electrode as reported.[89] The permeability of the stratum corneum was addressed by applying Lucifer yellow onto the RHE surface and inspecting the penetration by fluorescence microscopy.[88] TSLP and IL-8 levels were analyzed by ELISA (according to the specifications of Synelvia S.A.S.) in the culture medium on day 2 and day 4 after addition of cytokines, respectively.

[7] = Radical scavenging activity (DPPH); conditions: 25 μM, positive control
Experimental: Compound 27a was incubated with 2,2-diphenyl-1-picrylhydrazyl (DPPH, Sigma-Aldrich; 50 mM) in ethanol for 30 min, and the absorbance was measured at 520 nm using a Multiskan Spectrum Microplate Reader (Thermo Fisher Scientific).[72] The positive control ascorbic acid (Sigma-Aldrich; 25 μM) scavenged DPPH radicals by 36 ± 11%.

| SMILES | Cysteinyl-LTs in the exudate [1] | remaining activity at 1 µM [2] [%] | IC50 [3] [nM] | IC50 [4] [nM] | remaining activity at 3 µM [5] [%] | Cytokine-induced responses in RHE [6] | Scavenging of DPPH radicals [7] [%] |
| --- | --- | --- | --- | --- | --- | --- | --- |
| CC(c1cc2ccccc2s1)N(O)C(N)=O (stereo not drawn) [zileuton, reference compound] | did not evoke a stronger effect |  |  |  |  |  |  |
| C/C(=C\CC/C(C)=C/CC/C(C)=C/CC[C@]1(C)CCc2c(C)c(O)cc(C)c2O1)CO [Compound 10b] |  | 0.2 ± 0.1 | 380 ± 90 | 90 ± 30 | 7.7 ± 1.3 |  |  |
| C/C(=C/CC/C(C)=C/CC/C(C)=C/CC[C@]1(C)CCc2cc(O)c(C)c(C)c2O1)CO [Compound 10d] |  | 0 | 140 ± 20 | 120 ± 30 | 1.1 ± 1.1 |  |  |
| C[C@@H]1C[C@H]2[C@@H]3CCC4=CC(=O)C=C[C@]4(C)[C@@]3(F)[C@@H](O)C[C@]2(C)[C@@]1(O)C(=O)CO [Dexamethasone, reference compound] |  |  |  |  |  | suppressed these cytokine-induced responses |  |
| O=C1O[C@H]([C@@H](O)CO)C(O)=C1O [ascorbic acid, reference compound] |  |  |  |  |  |  | 36 ± 11 |
| Cc1c(O)cc2c(c1C)O[C@](C)(CCC[C@H](C)CCC[C@H](C)CCCC(C)C)CC2 [Compound 1c] |  | 47 ± 4.5 | > 3000 | 910 ± 150 | 78.5 ± 13.6 |  |  |
| C/C(=C/CC/C(C)=C/CC/C(C)=C/CC[C@]1(C)CCc2cc(O)cc(C)c2O1)CO [Compound 10e, δ-(Z)-deoxyamplexichromanol] |  | 0.3 ± 0.2 | 220 ± 40 | 140 ± 30 | 2 ± 0.2 |  |  |
| Cc1c(C)c2c(c(C)c1O)CC[C@@](C)(CCC[C@H](C)CCC[C@H](C)CCCC(C)C)O2 [Compound 1a, α-tocopherol] |  | 86.1 ± 8.3 | > 3000 | > 1000 | 88.6 ± 10.5 |  |  |
| CC(C)=CCC/C(C)=C/CC/C(C)=C/CC[C@]1(C)CCc2cc(O)cc(C)c2O1 [Compound 6d, δ-tocotrienol] |  | 6.7 ± 3.1 | > 3000 | 170 ± 100 | 74.9 ± 8 |  |  |
| C/C(=C\CC/C(C)=C/CC/C(C)=C/CC[C@]1(C)CCc2cc(O)cc(C)c2O1)CO [Compound 10c] |  | 2.7 ± 1.5 | 1260 ± 330 | 150 ± 50 | 8.8 ± 1.9 |  |  |
| Cc1c(C)c2c(c(C)c1O)CC[C@@](C)(CCCC(C)CCCC(C)CCCC(C)CO)O2 (stereo partly drawn) [Compound 9a, α-T-13′-CH2OH] |  | 1.5 ± 0.4 | 190 ± 50 | 350 ± 40 | 21.6 ± 2.5 |  |  |
| CC(C)=CCC/C(C)=C/CC/C(C)=C/CC[C@]1(C)CCc2cc(O)c(C)c(C)c2O1 [Compound 6c] |  | 6.4 ± 3.2 | > 3000 | 200 ± 60 | 73.5 ± 1.2 |  |  |
| C/C(=C\CC/C(C)=C/CC/C(C)=C/CC[C@]1(C)CCc2c(C)c(O)c(C)c(C)c2O1)CO [Compound 10a] |  | 0.2 ± 0.1 | 270 ± 100 | 110 ± 10 | 13.2 ± 2 |  |  |
| Cc1cc(O)cc2c1O[C@](C)(CCCC(C)CCCC(C)CCCC(C)CO)CC2 (stereo partly drawn) [Compound 9b] |  | 2.1 ± 0.3 | 540 ± 180 | 120 ± 40 | 22.6 ± 2.4 |  |  |
| Cc1cc(O)c(C)c2c1O[C@](C)(CCC[C@H](C)CCC[C@H](C)CCCC(C)C)CC2 [Compound 1b] |  | 32.8 ± 9 | > 3000 | 750 ± 150 | 79.6 ± 6.1 |  |  |
